The values below come from patent US7468274B2, “Single cell analysis of HIV replication capacity and drug resistance” (priority 2004, dated 2008).

Data set [1] deals with pseudotyped reporter viruses carrying the NL4-3 gag-pol sequence (wild type). Type of data set: cell-based, HIV-1.
The conditions of data set [2]: in vivo; cited from earlier work.
For data set [3], the system named is Pt2019-1-1 patient-derived drug-resistant HIV-1 isolate. The class given is cell-based.
The subject of data set [4] is Pt2019-1-2 patient-derived drug-resistant HIV-1 isolate. Type of data set: cell-based.

Values joined by “and” are separate entries in the source; they are usually repeats but may differ in a detail not shown here. Equal entries are not always repeated. “Also recorded” adds a separate entry of the source. Where two headings read alike, the source gives them in different places.

As for `Cc1cn([C@H]2C[C@H](N=[N+]=[N-])[C@@H](CO)O2)c(=O)[nH]c1=O` [AZT, zidovudine], in data set [1], the “% GFP-positive target cells” value was 7.61% and 6.70% and 7.59% and 6.71%; the “Drug resistance index (replication with drug / without drug)” value is recorded as 0.356; the “Mean % GFP-positive target cells” value is recorded as 7.15%.
`O=c1[nH]cnc2c1ncn2[C@H]1CC[C@@H](CO)O1` [ddI, didanosine]: in data set [1], the “Cmax relative to IC50 measured in this system” value is on record as “close to or below” and the “Cmax relative to IC90 measured in this system” value is recorded as “below”. In addition, the maximum concentration (Cmax) (usually the peak of the concentration-time curve) in data set [2] is 6.78 µM.
Take `Nc1ccn([C@@H]2CS[C@H](CO)O2)c(=O)n1` [3TC, lamivudine]: the “Drug Resistance Index” value in data set [1] is 0.002; in data set [3] it was 1; in data set [3] (Pt2019-1-1, concn 12.5 (head prints p.M; text 12.5 μM)), 0.8; in data set [4] (concn 12.5 (head prints p.M; text 12.5 μM)) it was 0.001. In addition, in data set [1], the “Replication Index (replication capacity index x drug resistance index)” value worked out at 0.002. The “Replication Index” value is reported as 0.42 in data set [3] (Pt2019-1-1, concn 12.5 (head prints p.M)) and 0.00053 in data set [4] (concn 12.5 (head prints p.M)).
Consider `Cc1cn([C@H]2C=C[C@@H](CO)O2)c(=O)[nH]c1=O` [d4T, stavudine], for which, in data set [1], the “% GFP-positive target cells” value is 6.83% and 7.04% and 5.74%; the “Cmax relative to IC50 measured in this system” value is “close to or below; also recorded: below”; the “Drug resistance index (replication with drug / without drug)” value is listed as 0.325; the “Mean % GFP-positive target cells” value was determined as 6.54%.
On to `O=C1Nc2ccc(Cl)cc2[C@@](C#CC2CC2)(C(F)(F)F)O1` [EFV, efavirenz], for which the “Cmin/IC50 ratio (published Cmin to IC50 measured in this system)” value in data set [1] was > 1,000 fold.
